Source: PubChem BioAssay AID1963964 (Molecular Pharmacology Branch, DTP, NCI, 2024)

System: 997726-040-R-J2-PDC tumor spheroids, viability
Experiment: Anticancer human tumor 997726-040-R-J2-PDC patient-derived squamous cell lung carcinoma cell line growth inhibition [PI3K]
Conditions: spheroids with HUVEC and MSC; for IC50: curve of first compound; for viability, T/C: stronger effect = lower value
How it was run: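 Three cell types, namely tumor cells, endothelial cells and mesenchymal stem cells, formed each spheroid. Combinations with four PI3K inhibitors were screened at clinically achievable concentrations decreasing by half-log, and spheroid viability was recorded.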

[1] = second compound 0.00316 µM, first compound 0.0316 µM
[2] = second compound 0.00316 µM, first compound 0.1 µM
[3] = second compound 0.00316 µM, first compound 0.316 µM
[4] = second compound 0.00316 µM, first compound 1 µM
[5] = second compound 0.01 µM, first compound 0.0316 µM
[6] = second compound 0.01 µM, first compound 0.1 µM
[7] = second compound 0.01 µM, first compound 0.316 µM
[8] = second compound 0.01 µM, first compound 1 µM
[9] = second compound 0.0316 µM, first compound 0.0316 µM
[10] = second compound 0.0316 µM, first compound 0.1 µM
[11] = second compound 0.0316 µM, first compound 0.316 µM
[12] = second compound 0.0316 µM, first compound 1 µM
[13] = second compound 0.1 µM, first compound 0.0316 µM
[14] = second compound 0.1 µM, first compound 0.1 µM
[15] = second compound 0.1 µM, first compound 0.316 µM
[16] = second compound 0.1 µM, first compound 1 µM
[17] = second compound 0.316 µM, first compound 0.0316 µM
[18] = second compound 0.316 µM, first compound 0.1 µM
[19] = second compound 0.316 µM, first compound 0.316 µM
[20] = second compound 0.316 µM, first compound 1 µM
[21] = second compound 1 µM, first compound 0.0316 µM
[22] = second compound 1 µM, first compound 0.1 µM
[23] = second compound 1 µM, first compound 0.316 µM
[24] = second compound 1 µM, first compound 1 µM
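Note: spheroids exposed to compounds for seven days before readout.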

`CCN1CCN(Cc2ccc(Nc3ncc(F)c(-c4cc(F)c5nc(C)n(C(C)C)c5c4)n3)nc2)CC1` + COc1c(OCCCN2CCOCC2)ccc2c3n(c(=NC(=O)c4cnc(N)nc4)nc12)CCN3 was tested, and the IC50 (second compound 0.00316 µM) was > 1 µM, the IC50 (second compound 0.01 µM) was 0.0104 µM and the IC50 (second compound 0.0316 µM) was < 0.00316 µM. For the same compound, the IC50 (second compound 0.1 µM) was < 0.00316 µM, the IC50 (second compound 0.316 µM) was < 0.00316 µM and the IC50 (second compound 1 µM) was < 0.00316 µM. The viability, T/C (second compound 0.00316 µM, first compound 0.00316 µM) was 70%, the viability, T/C (second compound 0.00316 µM, first compound 0.01 µM) was 68.4% and the viability, T/C [1] was 62.2%. It also gave a viability, T/C [2] of 54.2%, a viability, T/C [3] of 55.1% and a viability, T/C [4] of 65.3%. The viability, T/C (second compound 0.01 µM, first compound 0.00316 µM) was 61%, the viability, T/C (second compound 0.01 µM, first compound 0.01 µM) was 50.4% and the viability, T/C [5] was 49.1%. The viability, T/C [6] was 41.3%, the viability, T/C [7] was 41.5% and the viability, T/C [8] was 60.8%. It also gave a viability, T/C (second compound 0.0316 µM, first compound 0.00316 µM) of 31.4%, a viability, T/C (second compound 0.0316 µM, first compound 0.01 µM) of 34.8% and a viability, T/C [9] of 29.5%. It also gave a viability, T/C [10] of 28.1%, a viability, T/C [11] of 31% and a viability, T/C [12] of 33.7%. The viability, T/C (second compound 0.1 µM, first compound 0.00316 µM) was 22%, the viability, T/C (second compound 0.1 µM, first compound 0.01 µM) was 20.4% and the viability, T/C [13] was 17.7%. For the same compound, the viability, T/C [14] was 16.6%, the viability, T/C [15] was 16.9% and the viability, T/C [16] was 19.3%. It also gave a viability, T/C (second compound 0.316 µM, first compound 0.00316 µM) of 5.44%, a viability, T/C (second compound 0.316 µM, first compound 0.01 µM) of 4.49% and a viability, T/C [17] of 4.5%. It also gave a viability, T/C [18] of 6.65%, a viability, T/C [19] of 6.95% and a viability, T/C [20] of 7.72%. It also gave a viability, T/C (second compound 1 µM, first compound 0.00316 µM) of 1.02%, a viability, T/C (second compound 1 µM, first compound 0.01 µM) of 1.63% and a viability, T/C [21] of 1.24%. The viability, T/C [22] was 1.32%, the viability, T/C [23] was 2.23% and the viability, T/C [24] was 3.91%.

With `CCCS(=O)(=O)Nc1ccc(F)c(C(=O)c2c[nH]c3ncc(-c4ccc(Cl)cc4)cc23)c1F` + CC(Nc1ccc2c(c1)OCCn1cc(N3C(=O)OCC3C(F)F)nc1-2)C(N)=O the IC50 (second compound 0.00316 µM) was 6.54 µM, the IC50 (second compound 0.01 µM) was 6.21 µM and the IC50 (second compound 0.0316 µM) was 4.99 µM. For the same compound, the IC50 (second compound 0.1 µM) was 3.46 µM, the IC50 (second compound 0.316 µM) was < 0.0316 µM and the IC50 (second compound 1 µM) was < 0.0316 µM. It also gave a viability, T/C [1] of 83.8%, a viability, T/C [2] of 101% and a viability, T/C [3] of 98.2%. The viability, T/C [4] was 108%, the viability, T/C (second compound 0.00316 µM, first compound 3.16 µM) was 107% and the viability, T/C (second compound 0.00316 µM, first compound 10 µM) was 20.9%. The viability, T/C [5] was 76.5%, the viability, T/C [6] was 94.7% and the viability, T/C [7] was 90.7%. For the same compound, the viability, T/C [8] was 90.3%, the viability, T/C (second compound 0.01 µM, first compound 3.16 µM) was 97.1% and the viability, T/C (second compound 0.01 µM, first compound 10 µM) was 21.8%. For the same compound, the viability, T/C [9] was 65.1%, the viability, T/C [10] was 64.1% and the viability, T/C [11] was 72.4%. For the same compound, the viability, T/C [12] was 72%, the viability, T/C (second compound 0.0316 µM, first compound 3.16 µM) was 70.3% and the viability, T/C (second compound 0.0316 µM, first compound 10 µM) was 21.8%. The viability, T/C [13] was 54.6%, the viability, T/C [14] was 53.1% and the viability, T/C [15] was 49.4%. The viability, T/C [16] was 51.9%, the viability, T/C (second compound 0.1 µM, first compound 3.16 µM) was 52.9% and the viability, T/C (second compound 0.1 µM, first compound 10 µM) was 22.6%. For the same compound, the viability, T/C [17] was 35.6%, the viability, T/C [18] was 36.8% and the viability, T/C [19] was 40.1%. The viability, T/C [20] was 43.6%, the viability, T/C (second compound 0.316 µM, first compound 3.16 µM) was 39.8% and the viability, T/C (second compound 0.316 µM, first compound 10 µM) was 17.3%. It also gave a viability, T/C [21] of 35.6%, a viability, T/C [22] of 28.7% and a viability, T/C [23] of 29.8%. The viability, T/C [24] was 32.5%, the viability, T/C (second compound 1 µM, first compound 3.16 µM) was 30.9% and the viability, T/C (second compound 1 µM, first compound 10 µM) was 16.1%.
